Entries after “also recorded” stand apart in the source; their conditions may differ.
How the values were obtained:
[1] = system: cells expressing sialyl Lewis X antigen; assay: MALDI-IMS imaging of a renal cell carcinoma tissue slice incubated with the imaging agent; format: binding; settings: fresh-frozen renal tissue with tumor and normal regions, 7 μm slice, 2 ng/μl in methanol, overnight at 4° C., no matrix
Description: A tissue slice containing renal cell carcinoma was immunostained (mouse monoclonal antibody, GenWay Biotech San Diego, Calif.) that expressed regions coincident with the tumor area (dark stained bottom tip area of FIG. 3; confirmed by pathological analysis).
An adjacent tissue slice (7 μm) was placed on a conductive slide and incubated with the imaging agent of Example 3 in 100% methanol (2 ng/μl) in a humid chamber overnight at 4° C. Slides were washed for 5 minutes in PBS followed by brief water wash to remove any unbound material. The slides are placed in a desiccator for 20 minutes and analyzed directly by MALDI-TOF (no matrix is added) in the reflectron mode using a laser raster width of 200 μm.
The stabilized carbocation is used in this example located and confirm immunological and pathology analysis of this sample that the MALDI indicated region corresponded to the area associated with cancerous tissue.

[2] = system: renal cell carcinoma tissue; assay: MALDI-IMS of alcohol fixed (UMFIX/Sakura) renal cell carcinoma tissue exposed to the imaging agent; format: binding
Source text: FIG. 4 depicts the MALDI-IMS of a renal cell carcinoma tissue sample exposed to the imaging agent of Example 3. FIG. 5 depicts the same tissue sample stained with Sakura/UMFx alcohol.
These red pixels correlate to the MALDI peaks in the spectra shown in FIG. 1 and the color intensity is related to peak abundance as shown in the expression scale. Peaks were obtained in the absence of any chemical matrix. […] As such, this provides a method for probing tumor tissue microarrays prepared from alcohol or formalin fixed tissues.

## COc1ccc(C(SCCC(=O)NCCCn2cc(COc3cc(C(=O)N(C)Cc4c5ccccc5c(CN(C)Cc5ccccc5B(O)O)c5ccccc45)ccc3C(=O)N(C)Cc3c4ccccc4c(CN(C)Cc4ccccc4B(O)O)c4ccccc34)nn2)(c2ccc(OC)cc2)c2ccc(OC)c(C#CCCC(=O)NCc3ccccc3)c2)cc1 [Example 3, [({[({[({2-[(1-{3-[({3-[5-(Benzylamino)-5-oxopent-1-yn-1-yl]-4-methoxyphenyl}bis(4-methoxyphenyl)methyl)thio]propanamido}prop-3-yl)-1H-1,2,3-triazol-4-yl]methoxy}terephthaloyl)bis(methylazanediyl)]bis(methylene)}bis(anthracene-10,9-diyl))bis(methylene)]bis(methylazanediyl)}bis(methylene))bis(2,1-phenylene)]-diboronic acid]
[1]
  binding of the imaging agent to tissue, detected as stabilized carbocation in MALDI-IMS: bound only to the cells expressing sialyl Lewis X antigen
[2]
  binding of the imaging agent to alcohol fixed tumor tissue: affixed to the cell surface; also recorded: capable of binding to alcohol fixed renal tissues

Source: patent publication US9476883B2, “Cellular recognition conjugates and methods of use for the histological analysis of cancer tissue using MALDI-MS imaging” (GEORGIA STATE UNIVERSITY RESEARCH FOUNDATION, priority 2011, dated 2016)
